According to patent publication US20240366550A1, “Drug for Treating Prostatitis or Benign Prostatic Hyperplasia (BPH)” (Beijing University of Chemical Technology, priority 2021, published 2024):
Read-outs that look alike come from different tables or passages of the source.

Columns and labels:
[1] = clinical; settings: male, human, po, 10 mg
Experimental: The drug concentration of SFA in vivo was determined in 9 cases of the 115 patients: the patients took 10 mg of SFA orally every day for 3 consecutive days.

[2] = tested on: chronic bacterial prostatitis (type-II prostatitis patients)
Experimental: (§1) General information: this group of patients included 117 cases, aged 18 to 52 years old, with an average age of 34.5 years, and their disease duration ranged from 2 months to 5 years.
(§2) Treatment method: 10 mg of SFA per day for 4 to 6 weeks.
Criteria for determining efficacy: the patients were scored according to the Chronic Prostatitis Score (NIH2CPSI) of the National Institutes of Health (NIH); the efficacy was determined based on the patient's symptoms, routine examination results of prostate fluid obtained by massage, and VB3 and EPS bacterial culture results obtained by the Meares-Stamey four-cup test.

[3] = in vivo; settings: po
[4] = tested on: prostatic hyperplasia; settings: of 55 subjects in total
Experimental: as §1, §2

[5] = number of patients relieved/total number of patients
[6] = of the remaining 95 cases taking the drug for 6 weeks

concentration at 6 h ([1]; blood): 50.6 to 182 ng/mL
concentration at 6 h ([1]; prostatic fluid obtained by massage): 13.5 to 22.8 ng/mL
concentration at 6 h ([1]; semen): 2.6 to 5.5 ng/mL
bioavailability [3]: 90%
Compound: C[S+]([O-])CCCCN=C=S (centres unmarked) [SFA, Sulforaphane]
total effective rate ([2]; 12 patients infected with Escherichia coli, 11 with Streptococcus agalactiae, 8 with Streptococcus faecalis): 10000
total effective rate ([2]; 115 patients, 4 to 6 weeks): 88.7%
Urination symptom score ([2]; after treatment, 10 mg SFA per day for 4 to 6 weeks, before treatment 6.8 ± 1.1, P<0.01): 3.2 ± 1.1
Quality of life score ([2]; after treatment, 10 mg SFA per day for 4 to 6 weeks, before treatment 15.2 ± 4.6, P<0.01): 7.5 ± 1.3
Pain and discomfort score ([2]; after treatment, 10 mg SFA per day for 4 to 6 weeks, before treatment 15.3 ± 2.6, P<0.01): 10.3 ± 3.2
NIH-CPSI score ([2]; after treatment, 10 mg SFA per day for 4 to 6 weeks, before treatment 35.2 ± 3.3, P<0.01): 20.1 ± 5.6
White blood cells in prostatic fluid obtained by massage: Negative ([2]; after treatment, before treatment 0): 32 number of people
White blood cells in prostatic fluid obtained by massage: ++++ ([2]; after treatment, before treatment 14): 4 number of people
White blood cells in prostatic fluid obtained by massage: +++ ([2]; after treatment, before treatment 28): 9 number of people
White blood cells in prostatic fluid obtained by massage: + ([2]; after treatment, before treatment 31): 49 number of people
White blood cells in prostatic fluid obtained by massage: ++ ([2]; after treatment, before treatment 44): 21 number of people
Relieving rate, distending pain and discomfort in the suprapubic region [2, 5]: 82.9%
Relieving rate, ejaculation pain [2, 5]: 81.2%
Relieving rate, feeling of incomplete urination [2, 5]: 67.1%
Relieving rate, frequent urination [2, 5]: 80.2%
Relieving rate, labored urination [2, 5]: 72.6%
Relieving rate, penis pain [2, 5]: 77.3%
Relieving rate, perineum pain [2, 5]: 69.5%
Relieving rate, urgent urination [2, 5]: 81.3%
Relieving rate, white urine [2, 5]: 91.2%
cases cured within 4 weeks of taking the drug ([2]; of 115 patients who completed treatment, 10 mg per day): 20 cases
cases cured [2, 6]: 15 cases
cases effective [2, 6]: 23 cases
cases ineffective [2, 6]: 13 cases
cases markedly effective [2, 6]: 44 cases
Number of subjects, prostatic hyperplasia: Cured [4]: 52
Number of subjects, prostatic hyperplasia: Effective [4]: 2
Number of subjects, prostatic hyperplasia: Ineffective [4]: 1
